Results taken from ChEMBL document CHEMBL4024717, “Anthranilamide-based 2-phenylcyclopropane-1-carboxamides, 1,1'-biphenyl-4-carboxamides and 1,1'-biphenyl-2-carboxamides: Synthesis biological evaluation and mechanism of action” (Eur J Med Chem, 2017).

Columns and labels:
[1] = tested on: K562; assay: Growth inhibition of human K562 cells at 10 uM after 24 hrs by MTT assay relative to control; type: functional; settings: K562, 24 h, read-out: GI
[2] = tested on: K562; assay: Cytotoxicity against human K562 cells after 48 hrs by MTT assay; type: functional, cell-based; settings: K562, 48 h

SMILES	inhibition of growth at 10 µM [1]	IC50 [2]
COc1ccc(NC(=O)c2ccccc2-c2ccccc2)c(C(N)=O)c1	37%	
COc1cc2c(c(OC)c1OC)-c1ccc(OC)c(=O)cc1[C@@H](NC(C)=O)CC2 [COLCHICINE]	63.6%	
NC(=O)c1cc(Cl)ccc1NC(=O)c1ccc(-c2ccccc2)cc1	45%	
COc1ccc(NC(=O)c2ccc(-c3ccccc3)cc2)c(C(N)=O)c1	29.2%	
Cc1ccc(NC(=O)c2ccc(-c3ccccc3)cc2)c(C(N)=O)c1	39.7%	
NC(=O)c1ccccc1NC(=O)[C@@H]1C[C@H]1c1ccccc1	< 10%	
Cc1ccc(NC(=O)[C@@H]2C[C@H]2c2ccccc2)c(C(N)=O)c1	15%	
COc1ccc(NC(=O)[C@@H]2C[C@H]2c2ccccc2)c(C(N)=O)c1	26.7%	
NC(=O)c1cc(I)ccc1NC(=O)[C@@H]1C[C@H]1c1ccccc1	25%	10 µM
NC(=O)c1ccccc1NC(=O)c1ccccc1-c1ccccc1	44.6%	
